Assay results as given in patent US12653872B2, “Mimotopes of alpha-synuclein and vaccines thereof for the treatment of synucleinopathy” (AC Immune SA, priority 2008, dated 2026).

Assays:
[1] = test system: recombinant human alpha-synuclein protein; assay: Mimotope-KLH vaccination of mice: serum titer against recombinant alpha-synuclein (ELISA); assay type: in vivo, C57/Bl6 mice; details: pooled sera after 4 vaccinations; FIG. 5B
Description: (§1) Inhibiting as well as non-inhibiting peptides were coupled to KLH and injected into mice (wildtype C57/Bl6 mice; subcutaneous injection into the flank) together with an appropriate adjuvant (aluminium hydroxide). Animals were vaccinated 4-6 times in biweekly intervals and sera were taken biweekly as well. Titers to injected peptides as well as to an irrelevant peptide were determined with every serum. Titers against the recombinant human alpha-synuclein protein and recombinant human beta-synuclein were determined starting with Serum 3 respectively. Pooled sera were tested against the original human alpha-synuclein epitope (aa115-122). In general sera were analysed by reaction against peptides coupled to Bovine Serum Albumin (BSA) and recombinant full length proteins which were immobilised on ELISA plates. Titers were determined using anti mouse IgG specific antibodies. For detailed results see FIGS. 4A, 4B, 5A and 5B.
(§2) Female C57/Bl6 mice, 5-6 mice per group, were subcutaneously immunized with 30 μg peptide coupled to KLH. Control groups were administered p4448-KLH conjugate. As adjuvant alum was used (always 1 mg per mouse). […] The in vitro ELISA assay to determine the antibody titer was performed with sera of single mice or pooled sera (see FIGS. 5A and 5B) after each vaccination in a two week interval (see FIGS. 4A, 4B, 5A and 5B, respectively). The wells of the ELISA plate were coated with mimotope-BSA conjugate and an irrelevant peptide-BSA conjugate (negative control). The positive control was performed by reaction of the parental antibody with the respective mimotope-BSA conjugate. The detection was performed with anti-mouse IgG. Additionally, recombinant proteins were immobilised on ELISA plates and sera reacted accordingly.

[2] = test system: recombinant human beta-synuclein; assay: Mimotope-KLH vaccination of mice: serum titer against recombinant beta-synuclein (ELISA); assay type: in vivo, C57/Bl6 mice; details: pooled sera after 4 vaccinations, FIG. 5B
Description: as §1, §2

[3] = test system: injected peptide (peptide-BSA conjugate); assay: Mimotope-KLH vaccination of mice: serum titer against injected peptide (ELISA); assay type: in vivo, C57/Bl6 mice; details: C57/Bl6 mice, 30 μg peptide-KLH s.c., alum, repeated vaccination
Description: as §1, §2

[4] = test system: irrelevant peptide p1253; assay: Mimotope-KLH vaccination of mice: serum titer against irrelevant peptide (ELISA); assay type: in vivo; details: C57/Bl6 mice, alum
Description: as §1, §2

[5] = test system: monoclonal antibody specific for human alpha-synuclein at position 115-122 (AFFiRiS3/9, A509); assay: In vitro binding assay (ELISA): peptide-BSA on plate, incubated with the screening monoclonal antibody; design: species or system mouse; details: FIG. 1 and FIG. 2
Source text: 1. In Vitro Binding Assay (ELISA)

## CDMPVDPDN [p4448, reference compound]
[1]
  reactivity of induced sera with alpha-synuclein: show titers against alpha-synuclein
[2]
  reactivity of induced sera with beta-synuclein: detect alpha and beta-synuclein
[2]; listed as original epitope
  reactivity of induced sera with beta-synuclein: also detected the full length beta-synuclein protein
[3]
  immune response against injected peptide: elicited immune responses against the injected peptide
[4]
  immune response against unrelated sequence p1253: failed to induce an unspecific immune response
[5]
  binding to / detection by the monoclonal antibody in ELISA: are detected by the antibody
